# According to DBAASP:
# Values joined by “and” are separate entries in the source; they are usually repeats but may differ in a detail not shown here. Equal values may be shown once.
# Assays:
# Assay in all cases: ≥ marks a high value that may be exact or a test limit, other limits are often not marked, values filed in µg/mL are converted to µM
# [1] = system: Candida albicans ATCC 90028
# [2] = system: Escherichia coli ATCC 25922
# [3] = system: Candida albicans CIB 45437
# [4] = system: Staphylococcus aureus ATCC 25923
# [5] = system: Staphylococcus aureus NCTC 8325
# [6] = system: Staphylococcus aureus CIB 85462
# [7] = system: Escherichia coli CIB 84492
# [8] = system: Candida glabrata ATCC 2001
# [9] = system: Bacillus thuringiensis serovar israelensis
# [10] = system: Escherichia coli DH5alpha
# [11] = system: Escherichia coli D31 CGSC 5165
# Proteus mirabilis = system: Proteus mirabilis
# [12] = system: Staphylococcus epidermidis
# [13] = system: Staphylococcus haemolyticus
# [14] = system: Staphylococcus epidermidis ATCC 14990
# [15] = system: Acinetobacter calcoaceticus
# [16] = system: Streptococcus pneumoniae ATCC 49619
# Streptococcus pneumoniae = system: Streptococcus pneumoniae
# Enterococcus faecium = system: Enterococcus faecium
# Enterobacter cloacae = system: Enterobacter cloacae
# Klebsiella aerogenes = system: Klebsiella aerogenes
# Pseudomonas aeruginosa = system: Pseudomonas aeruginosa
# Staphylococcus aureus = system: Staphylococcus aureus
# [17] = system: Klebsiella pneumoniae ATCC 700603
# Klebsiella oxytoca = system: Klebsiella oxytoca
# [18] = system: Streptococcus agalactiae ATCC 27956
# [19] = system: Pseudomonas aeruginosa ATCC 27853
# Serratia marcescens = system: Serratia marcescens
# Proteus vulgaris = system: Proteus vulgaris
# [20] = system: Enterococcus faecalis ATCC 29212
# [21] = system: Streptococcus oralis ATCC 35037
# Escherichia coli = system: Escherichia coli
# Citrobacter freundii = system: Citrobacter freundii
# [22] = system: Candida glabrata IFM 46861
# [23] = system: Candida tropicalis IFM 46862
# Candida krusei IFN 5462 = system: Candida krusei IFN 5462
# Candida albicans SC5314 = system: Candida albicans SC5314
# [24] = system: Staphylococcus aureus CIP 677
# [25] = system: Lactococcus lactis subsp. cremoris I116
# Listeria ivanovii LMA 94 = system: Listeria ivanovii LMA 94
# [26] = system: Klebsiella pneumoniae CIP 8291
smiles,measurement,setting,value
CC(C)C[C@H](NC(=O)CN)C(=O)N[C@@H](CC(C)C)C(=O)N[C@@H](CC(=O)O)C(=O)N[C@H](C(=O)N[C@@H](Cc1ccccc1)C(=O)N[C@@H](CCCCN)C(=O)N[C@@H](CC(N)=O)C(=O)N[C@@H](CC(C)C)C(=O)N[C@@H](C)C(=O)N[C@@H](CC(C)C)C(=O)N[C@@H](CC(N)=O)C(=O)N[C@@H](C)C(=O)N[C@@H](C)C(=O)N[C@@H](CCCCN)C(=O)N[C@@H](CO)C(=O)N[C@@H](C)C(=O)NCC(=O)N[C@H](C(=O)N[C@@H](CO)C(=O)N[C@H](C(=O)N[C@@H](CC(C)C)C(=O)N[C@@H](CC(N)=O)C(=O)N[C@@H](CO)C(=O)N[C@@H](CC(C)C)C(=O)N[C@@H](CO)C(=O)N[C@H]1CSSC[C@@H](C(=O)O)NC(=O)[C@H]([C@@H](C)O)NC(=O)[C@H](CCCCN)NC(=O)[C@H](CO)NC(=O)[C@H](CC(C)C)NC(=O)[C@H](CCCCN)NC1=O)C(C)C)C(C)C)[C@@H](C)O [GLLDTFKNLALNAAKSAGVSVLNSLSCKLSKTC],MIC,[1],≥ 100 µM
same,MIC,[2],12.5 µM
same,MIC,[3],19 µM
same,MIC,[4],19 µM
same,MIC,[5],≥ 50 µM
same,MIC,[6],19 µM
same,MIC,[7],≥ 38 µM
CC[C@H](C)[C@H](NC(=O)[C@H](Cc1ccccc1)NC(=O)[C@H](CCCCN)NC(=O)[C@H](C)NC(=O)[C@@H](NC(=O)[C@H](CO)NC(=O)[C@H](CCCCN)NC(=O)[C@H](CCSC)NC(=O)[C@@H](NC(=O)[C@H](CCCCN)NC(=O)[C@H](Cc1ccccc1)NC(=O)[C@H](Cc1c[nH]c2ccccc12)NC(=O)[C@H](CCCCN)NC(=O)[C@@H](NC(=O)[C@@H](N)CCCCN)[C@@H](C)CC)[C@@H](C)O)[C@@H](C)CC)C(=O)N[C@@H](C)C(=O)N[C@@H](CCCCN)C(=O)N[C@@H](CCC(=O)O)C(=O)N[C@@H](CCC(N)=O)C(=O)N[C@@H](CCSC)C(=O)N[C@@H](CCCCN)C(=O)N[C@@H](CCCCN)C(=O)N[C@@H](Cc1cnc[nH]1)C(=O)N[C@@H](CC(C)C)C(=O)NCC(=O)NCC(=O)N[C@@H](CCC(=O)O)C(=O)O [KIKWFKTMKSIAKFIAKEQMKKHLGGE],MIC,[8],≥ 122 µM
same,MIC,[9],24.5 µM
same,MIC,[10],≥ 40 µM
same,MIC,[11],10 µM
NC(=O)CC[C@H](N)C(=O)N[C@@H](Cc1c[nH]c2ccccc12)C(=O)NCC(=O)N[C@@H](CCCN=C(N)N)C(=O)N[C@@H](CCCN=C(N)N)C(=O)N[C@H]1CSSC[C@@H]2NC(=O)[C@H](Cc3ccc(O)cc3)NC(=O)[C@H](CCCN=C(N)N)NC(=O)[C@H](CCCN=C(N)N)NC(=O)CNC(=O)[C@@H]3CCCN3C(=O)CNC(=O)[C@H](Cc3c[nH]c4ccccc34)NC(=O)CNC(=O)[C@H](CSSC[C@@H](C(=O)O)NC(=O)[C@H](Cc3c[nH]c4ccccc34)NC(=O)[C@H](CCCN=C(N)N)NC(=O)[C@H](CCCN=C(N)N)NC2=O)NC1=O [QWGRRCCGWGPGRRYCRRWC],MIC,Proteus mirabilis,25.2 µM
same,MIC,[12],8.9 µM
same,MIC,[13],4.45 µM
same,MIC,[14],31.5 µM and ≥ 62.9 µM
same,MIC,[15],≥ 50.3 µM
same,MIC,[16],7.86 µM and 15.7 µM
same,MIC,Streptococcus pneumoniae,8.9 µM
same,MIC,Enterococcus faecium,1.57 µM
same,MIC,Enterobacter cloacae,2.22 µM
same,MIC,Klebsiella aerogenes,8.9 µM
same,MIC,Pseudomonas aeruginosa,> 50.3 µM
same,MIC,Staphylococcus aureus,3.15 µM
same,MIC,[17],47.2 µM and 62.9 µM
same,MIC,Klebsiella oxytoca,17.8 µM
same,MIC,[18],≥ 62.9 µM
same,MIC,[19],62.9 µM
same,MIC,Serratia marcescens,4.45 µM
same,MIC,Proteus vulgaris,17.8 µM
same,MIC,[20],15.7 µM and 31.5 µM
same,MIC,[21],31.5 µM and ≥ 78.6 µM
same,MIC,Escherichia coli,2.22 µM
same,MIC,Citrobacter freundii,≥ 50.3 µM
CC(C)[C@H](N)C(=O)N[C@@H](CO)C(=O)N[C@@H](CCCN=C(N)N)C(=O)N[C@@H](CCCN=C(N)N)C(=O)N[C@@H](CCCN=C(N)N)C(=O)N[C@@H](CCCN=C(N)N)C(=O)N[C@@H](CCCN=C(N)N)C(=O)N[C@@H](CCCN=C(N)N)C(=O)NCC(=O)NCC(=O)N[C@@H](CCCN=C(N)N)C(=O)N[C@@H](CCCN=C(N)N)C(=O)N[C@@H](CCCN=C(N)N)C(=O)N[C@@H](CCCN=C(N)N)C(=O)O [VSRRRRRRGGRRRR],MIC,[22],2.5 µM
same,MIC,[23],2.5 µM
same,MIC,Candida krusei IFN 5462,2.5 µM
same,MIC,Candida albicans SC5314,1.6 µM and 2.5 µM
CC[C@H](C)[C@H](NC(=O)[C@H](CCCCN)NC(=O)[C@H](CC(C)C)NC(=O)[C@H](C)NC(=O)[C@H](CO)NC(=O)CNC(=O)[C@H](CC(C)C)NC(=O)[C@@H](N)Cc1c[nH]c2ccccc12)C(=O)NCC(=O)N[C@@H](C)C(=O)N[C@@H](CCCCN)C(=O)N[C@@H](CC(C)C)C(=O)N[C@@H](CC(C)C)C(=O)N1CCC[C@H]1C(=O)N[C@@H](CO)C(=O)N[C@H](C(=O)N[C@H](C(=O)NCC(=O)N[C@@H](CC(C)C)C(=O)N[C@@H](Cc1ccccc1)C(=O)N[C@@H](CCCCN)C(=O)N[C@@H](CCCCN)C(=O)N[C@@H](CCCCN)C(=O)N[C@@H](CCCCN)C(=O)N[C@@H](CCC(N)=O)C(=O)O)C(C)C)C(C)C [WLGSALKIGAKLLPSVVGLFKKKKQ],MIC,[24],8 µM
same,MIC,[25],4 µM
same,MIC,Listeria ivanovii LMA 94,8 µM
same,MIC,[26],≥ 64 µM
